According to patent US20160039879A1, “NOVEL CYCLOSPORIN DERIVATIVES AND USES THEREOF” (S&T Global Inc., priority 2013, published 2016):
Where two headings read alike, the source gives them in different places. Starred links: 1 amine or outer side, 2 acyl side, 3 side chain; linkers in the order of their positions; H or OH if unused. Non-standard residues stand in square brackets, D forms with d. Residues, ends and D or L forms follow the SMILES beside them. ξ: configuration not given here. X12 = COc1ccc(COC(C)(C)C[C@@H](C(=O)[*:2])N(C)[*:1])cc1; X8 = CN([C@@H](CC(C)(C)OCc1ccccc1)C(=O)[*:2])[*:1]; MeBmt = C/C=C/C[C@@H](C)[C@@H](O)[C@H](NC)C(=O)O; X3 = CN([C@H](SCCCN1CCOCC1)C(=O)[*:2])[*:1]; X1 = CCN(CC)CCCS[C@H](C(=O)[*:2])N(C)[*:1]; X7 = CCN(CC)CCS[C@@H](C(=O)[*:2])N(C)[*:1]; X13 = CCOCOC(C)(C)CC(C(=O)[*:2])N(C)[*:1]; X2 = CCN(CC)CCS[C@H](C(=O)[*:2])N(C)[*:1]; X4 = CC=CCC(C)C(O)C(C(=O)[*:2])N(C)[*:1]; X9 = CN(C(SCCCN1CCOCC1)C(=O)[*:2])[*:1]; NMeIle(3ξ) = CCC(C)[C@H](NC)C(=O)O; NMeL = CN[CH](CC(C)C)C(=O)O; NMeV = CN[CH](C(=O)O)C(C)C; Abu = CC[CH](N)C(=O)O

System: HCV replicon in cell line ET (luc-ubi-neo/ET), Huh7 human hepatoma cell line
Assay: HCV subgenomic replicon assay (luciferase end point)
Type: cell-based
Conditions: read-out: Antiviral activity EC50
[1] = Hepatitis C virus, Huh-7, Table 15, HCV replicon
[2] = Hepatitis C virus, Huh-7, Table 13, HCV replicon
[3] = Hepatitis C virus, Huh-7, Table 11, HCV replicon

C/C=C/C[C@@H](C)[C@@H](O)[C@H]1C(=O)N[C@@H](CC)C(=O)N(C)[C@H](CSCCCCC(CO)CO)C(=O)N(C)[C@@H](CC(C)(C)O)C(=O)N[C@@H](C(C)C)C(=O)N(C)[C@@H](CC(C)C)C(=O)N[C@@H](C)C(=O)N[C@H](C)C(=O)N(C)[C@@H](CC(C)C)C(=O)N(C)[C@@H](CC(C)C)C(=O)N(C)[C@@H](C(C)C)C(=O)N1C gave an EC50 [1] of 70 nM.

Compound C/C=C/C[C@@H](C)[C@@H](O)[C@H]1C(=O)N[C@@H](CC)C(=O)N(C)[C@H](CSCC[C@H](CO)CCC)C(=O)N(C)[C@@H](CC(C)(C)O)C(=O)N[C@@H](C(C)C)C(=O)N(C)[C@@H](CC(C)C)C(=O)N[C@@H](C)C(=O)N[C@H](C)C(=O)N(C)[C@@H](CC(C)C)C(=O)N(C)[C@@H](CC(C)C)C(=O)N(C)[C@@H](C(C)C)C(=O)N1C has an EC50 [1] of 70 nM.

For C/C=C/C[C@@H](C)[C@@H](O)[C@H]1C(=O)N[C@@H](CC)C(=O)N(C)[C@H](CSCC[C@@H](CO)CCC)C(=O)N(C)[C@@H](CC(C)(C)O)C(=O)N[C@@H](C(C)C)C(=O)N(C)[C@@H](CC(C)C)C(=O)N[C@@H](C)C(=O)N[C@H](C)C(=O)N(C)[C@@H](CC(C)C)C(=O)N(C)[C@@H](CC(C)C)C(=O)N(C)[C@@H](C(C)C)C(=O)N1C, the EC50 [1] was 70 nM.

For C/C=C/C[C@@H](C)[C@@H](O)[C@H]1C(=O)N[C@@H](CC)C(=O)N(C)[C@H](CSCCCCC(C)(C)O)C(=O)N(C)[C@@H](CC(C)(C)O)C(=O)N[C@@H](C(C)C)C(=O)N(C)[C@@H](CC(C)C)C(=O)N[C@@H](C)C(=O)N[C@H](C)C(=O)N(C)[C@@H](CC(C)C)C(=O)N(C)[C@@H](CC(C)C)C(=O)N(C)[C@@H](C(C)C)C(=O)N1C, the EC50 [1] was 60 nM.

C/C=C/C[C@@H](C)[C@@H](O)[C@H]1C(=O)N[C@@H](CC)C(=O)N(C)[C@H](CSC/C(=C/CN(CC)CC)CCC)C(=O)N(C)[C@@H](CC(C)(C)O)C(=O)N[C@@H](C(C)C)C(=O)N(C)[C@@H](CC(C)C)C(=O)N[C@@H](C)C(=O)N[C@H](C)C(=O)N(C)[C@@H](CC(C)C)C(=O)N(C)[C@@H](CC(C)C)C(=O)N(C)[C@@H](C(C)C)C(=O)N1C was tested, and the EC50 [1] was 60 nM.

Compound C/C=C/C[C@@H](C)[C@@H](O)[C@H]1C(=O)N[C@@H](CC)C(=O)N(C)[C@H](SCCCN2CCOCC2)C(=O)N(C)[C@@H](CC(C)(C)OCc2ccc(OC)cc2)C(=O)N[C@@H](C(C)C)C(=O)N(C)[C@@H](CC(C)C)C(=O)N[C@@H](C)C(=O)N[C@H](C)C(=O)N(C)[C@@H](CC(C)C)C(=O)N(C)[C@@H](CC(C)C)C(=O)N(C)[C@@H](C(C)C)C(=O)N1C (cyclo(A[dA][NMeL][NMeL][NMeV][MeBmt][Abu][X3][X12]V[NMeL])) has an EC50 (Table 11, HCV replicon) of 280 nM.

CC=CCC(C)C(O)C1C(=O)NC(CC)C(=O)N(C)C(SCCCN2CCOCC2)C(=O)N(C)C(CC(C)(C)OCOCC)C(=O)NC(C(C)C)C(=O)N(C)C(CC(C)C)C(=O)NC(C)C(=O)NC(C)C(=O)N(C)C(CC(C)C)C(=O)N(C)C(CC(C)C)C(=O)N(C)C(C(C)C)C(=O)N1C (centres unmarked) (cyclo([X4][Abu][X9][X13]V[NMeL]AA[NMeL][NMeL][NMeV]); configuration not given here) showed an EC50 (Table 11, HCV replicon) of 160 nM.

C/C=C/C[C@@H](C)[C@@H](O)[C@H]1C(=O)N[C@@H](CC)C(=O)N(C)[C@H](CSCCN(C)C)C(=O)N(C)[C@@H](CC(C)C)C(=O)N[C@@H](C(C)C)C(=O)N(C)[C@@H](CC(C)C)C(=O)N[C@@H](C)C(=O)N[C@H](C)C(=O)N(C)[C@@H](CC(C)C)C(=O)N(C)[C@@H](CC(C)C)C(=O)N(C)[C@@H](C(C)C)C(=O)N1C (single isomer, unassigned) [Example 6, isomer B] was tested, and the EC50 [2] was 170 nM.

With C/C=C/C[C@@H](C)[C@@H](O)[C@H]1C(=O)N[C@@H](CC)C(=O)N(C)[C@H](CSCCN(CC)CC)C(=O)N(C)[C@@H](CC(C)C)C(=O)N[C@@H](C(C)C)C(=O)N(C)[C@@H](CC(C)C)C(=O)N[C@@H](C)C(=O)N[C@H](C)C(=O)N(C)[C@@H](CC(C)C)C(=O)N(C)[C@@H](CC(C)C)C(=O)N(C)[C@@H](C(C)C)C(=O)N1C (single isomer, unassigned) [Example 7, isomer B] the EC50 [2] was 160 nM.

C/C=C/C[C@@H](C)[C@@H](O)[C@H]1C(=O)N[C@@H](CC)C(=O)N(C)[C@H](SCCN(CC)CC)C(=O)N(C)[C@@H](C(C)C)C(=O)N[C@@H](C(C)C)C(=O)N(C)[C@@H](CC(C)C)C(=O)N[C@@H](C)C(=O)N[C@H](C)C(=O)N(C)[C@@H](CC(C)C)C(=O)N(C)[C@@H](CC(C)C)C(=O)N(C)[C@@H](C(C)C)C(=O)N1C [(R)-2-(N,N-Diethylamino)ethylthio-Sar]-3-[N-MeVal]-4-cyclosporin] (cyclo(A[dA][NMeL][NMeL][NMeV][MeBmt][Abu][X2][NMeV]V[NMeL])) showed an EC50 (Table 10, HCV replicon) of 40 nM.

C/C=C/C[C@@H](C)[C@@H](O)[C@H]1C(=O)N[C@@H](CC)C(=O)N(C)[C@@H](SCCN(CC)CC)C(=O)N(C)[C@@H](C(C)C)C(=O)N[C@@H](C(C)C)C(=O)N(C)[C@@H](CC(C)C)C(=O)N[C@@H](C)C(=O)N[C@H](C)C(=O)N(C)[C@@H](CC(C)C)C(=O)N(C)[C@@H](CC(C)C)C(=O)N(C)[C@@H](C(C)C)C(=O)N1C [(S)-2-(N,N-Diethylamino)ethylthio-Sar]-3-[N-MeVal]-4-cyclosporin] (cyclo(A[dA][NMeL][NMeL][NMeV][MeBmt][Abu][X7][NMeV]V[NMeL])) gave an EC50 (Table 10, HCV replicon) of 3660 nM.

CC=CCC(C)C(O)C1C(=O)NC(CC)C(=O)N(C)C(SCCN(CC(C)C)C(C)C)C(=O)N(C)C(CC(C)C)C(=O)NC(C(C)C)C(=O)N(C)C(CC(C)C)C(=O)NC(C)C(=O)NC(C)C(=O)N(C)C(CC(C)C)C(=O)N(C)C(CC(C)C)C(=O)N(C)C(C(C)C)C(=O)N1C [(S)-2-(N-iso-Butyl-N-iso-propylamino)ethylthio-Sar]-3-cyclosporin] gave an EC50 (Table 10, HCV replicon) of 4650 nM.

Compound C/C=C/C[C@@H](C)[C@@H](O)[C@H]1C(=O)N[C@@H](CC)C(=O)N(C)[C@H](SCCN(CC)CC)C(=O)N(C)[C@@H](C(C)CC)C(=O)N[C@@H](C(C)C)C(=O)N(C)[C@@H](CC(C)C)C(=O)N[C@@H](C)C(=O)N[C@H](C)C(=O)N(C)[C@@H](CC(C)C)C(=O)N(C)[C@@H](CC(C)C)C(=O)N(C)[C@@H](C(C)C)C(=O)N1C (stereo partly drawn) [[(R)-2-(N,N-Diethylamino)ethylthio-Sar]-3-[NMeIle]-4-cyclosporin] (cyclo(A[dA][NMeL][NMeL][NMeV][MeBmt][Abu][X2][NMeIle(3ξ)]V[NMeL])) has an EC50 (Hepatitis C virus, Huh-7, Table 10, HCV replicon) of 40 nM.

Work on C/C=C/C[C@@H](C)[C@@H](O)[C@H]1C(=O)N[C@@H](CC)C(=O)N(C)[C@H](SCCCN(CC)CC)C(=O)N(C)[C@@H](CC(C)(C)O)C(=O)N[C@@H](C(C)C)C(=O)N(C)[C@@H](CC(C)C)C(=O)N[C@@H](C)C(=O)N[C@H](C)C(=O)N(C)[C@@H](CC(C)C)C(=O)N(C)[C@@H](CC(C)C)C(=O)N(C)[C@@H](C(C)C)C(=O)N1C [[(R)-3-(N,N Diethylamino)propylthio-Sar]-3-[(γ-hydroxy)-NMeLeu]-4-cyclosporin] yielded an EC50 [3] of 70 nM.

With C/C=C/C[C@@H](C)[C@@H](O)[C@H]1C(=O)N[C@@H](CC)C(=O)N(C)[C@H](SCCCN(CC)CC)C(=O)N(C)[C@@H](C(C)C)C(=O)N[C@@H](C(C)C)C(=O)N(C)[C@@H](CC(C)C)C(=O)N[C@@H](C)C(=O)N[C@H](C)C(=O)N(C)[C@@H](CC(C)C)C(=O)N(C)[C@@H](CC(C)C)C(=O)N(C)[C@@H](C(C)C)C(=O)N1C [[(R)-3-(N,N-Diethylamino)propylthio-Sar]-3-[N-MeVal]-4-cyclosporin] (cyclo(A[dA][NMeL][NMeL][NMeV][MeBmt][Abu][X1][NMeV]V[NMeL])) the EC50 [2] was 70 nM.

In the case of C/C=C/C[C@@H](C)[C@@H](O)[C@H]1C(=O)N[C@@H](CC)C(=O)N(C)[C@H](SCCCN(CC)CC)C(=O)N(C)[C@@H](C(C)CC)C(=O)N[C@@H](C(C)C)C(=O)N(C)[C@@H](CC(C)C)C(=O)N[C@@H](C)C(=O)N[C@H](C)C(=O)N(C)[C@@H](CC(C)C)C(=O)N(C)[C@@H](CC(C)C)C(=O)N(C)[C@@H](C(C)C)C(=O)N1C (stereo partly drawn) [[(R)-3-(N,N-Diethylamino)propylthio-Sar]-3-[NMeIle]-4-cyclosporin] (cyclo(A[dA][NMeL][NMeL][NMeV][MeBmt][Abu][X1][NMeIle(3ξ)]V[NMeL])), the EC50 [2] is reported as 80 nM.

Work on C/C=C/C[C@@H](C)[C@@H](O)[C@H]1C(=O)N[C@@H](CC)C(=O)N(C)[C@H](SCCCN2CCOCC2)C(=O)N(C)[C@@H](CC(C)(C)O)C(=O)N[C@@H](C(C)C)C(=O)N(C)[C@@H](CC(C)C)C(=O)N[C@@H](C)C(=O)N[C@H](C)C(=O)N(C)[C@@H](CC(C)C)C(=O)N(C)[C@@H](CC(C)C)C(=O)N(C)[C@@H](C(C)C)C(=O)N1C [[(R)-3-(N-Morpholino)propylthio-Sar]-3-[(γ-hydroxy)-NMeLeu]-4-cyclosporin] yielded an EC50 [3] of 50 nM.

Work on C/C=C/C[C@@H](C)[C@@H](O)[C@H]1C(=O)N[C@@H](CC)C(=O)N(C)[C@H](SCCCN2CCOCC2)C(=O)N(C)[C@@H](CC(C)(C)OC)C(=O)N[C@@H](C(C)C)C(=O)N(C)[C@@H](CC(C)C)C(=O)N[C@@H](C)C(=O)N[C@H](C)C(=O)N(C)[C@@H](CC(C)C)C(=O)N(C)[C@@H](CC(C)C)C(=O)N(C)[C@@H](C(C)C)C(=O)N1C [[(R)-3-(N-Morpholino)propylthio-Sar]-3-[(γ-methoxy)-NMeLeu]-4-cyclosporin] yielded an EC50 [3] of 60 nM.

For C/C=C/C[C@@H](C)[C@@H](O)[C@H]1C(=O)N[C@@H](CC)C(=O)N(C)[C@H](SCCCN2CCOCC2)C(=O)N(C)[C@@H](CC(C)(C)OCc2ccccc2)C(=O)N[C@@H](C(C)C)C(=O)N(C)[C@@H](CC(C)C)C(=O)N[C@@H](C)C(=O)N[C@H](C)C(=O)N(C)[C@@H](CC(C)C)C(=O)N(C)[C@@H](CC(C)C)C(=O)N(C)[C@@H](C(C)C)C(=O)N1C [[(R)-(3-(N-Morpholino)propylthio-Sar]-3-[(γ-benzyloxy)-N-MeLeu]-4-cyclosporin] (cyclo(A[dA][NMeL][NMeL][NMeV][MeBmt][Abu][X3][X8]V[NMeL])), the EC50 (Table 11, HCV replicon) was 280 nM.

“(R)-2-(N-iso-Butyl-N-iso-propylamino)ethylthio-Sar]-3-cyclosporin” gave an EC50 (Table 10, HCV replicon) of 480 nM.
